These are literature values, as cited in EP1001773B1, “ORAL SOLID PHARMACEUTICAL COMPOSITIONS CONTAINING NICORANDIL FOR A MODULATED RELEASE AND THE PROCESS FOR THEIR PREPARATION” (Biomedica Foscama Industria Chimico-Farmaceutica S.p.A., priority 1997, dated 1999).

Structures are written as SMILES.

For this data set the following is noted: orally administered, conventional tablets; Am.J.Cardiol. 1989, 63, 25J-33J.

Regarding `O=C(NCCO[N+](=O)[O-])c1cccnc1` [Nicorandil, N-(2-hydroxyethyl) nicotinamide nitric ester], the Tmax. is 30 min.
